From PMC3222680 (PLoS ONE, 2011)

Assays:
Format in all cases: cell-based
αWT β-αWT GlyR = target: T1, αWT β-αWT GlyR (Homo sapiens, UniProt P23415+P48167, A275I/A296P/F268Y/G272Q/L286I/M270L/M271I/P292M/P300G/S295A/T277S/V266M/V273M/V282I)
T1 construct: The α R218-Q219 and β R242-Q243 are also the joining sites for chimeras constructed between the ECD and TMD; expressed in transfected cells; host or cells: HEK293 (ATCC)
T1 sequence (P23415 29-449 isoform P23415-2): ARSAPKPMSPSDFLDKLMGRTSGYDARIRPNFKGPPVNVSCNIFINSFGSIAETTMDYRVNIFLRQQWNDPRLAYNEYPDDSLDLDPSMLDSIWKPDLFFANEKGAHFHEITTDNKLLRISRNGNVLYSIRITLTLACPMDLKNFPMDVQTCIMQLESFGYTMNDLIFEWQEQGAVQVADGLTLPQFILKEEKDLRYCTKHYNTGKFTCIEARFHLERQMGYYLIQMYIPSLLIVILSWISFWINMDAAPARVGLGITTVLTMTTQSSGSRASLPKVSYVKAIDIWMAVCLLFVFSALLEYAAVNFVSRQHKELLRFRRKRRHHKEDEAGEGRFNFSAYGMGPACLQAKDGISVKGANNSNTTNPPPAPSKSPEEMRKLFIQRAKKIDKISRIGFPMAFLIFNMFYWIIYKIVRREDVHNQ
T1 sequence (P48167+P23415 with tags, fused parts or gaps P48167:V266M/P48167:F268Y/P48167:M270L/P48167:M271I/P48167:G272Q/P48167:V273M/P48167:A275I/P48167:T277S/P48167:V282I/P48167:L286I/P48167:P292M/P48167:S295A/P48167:A296P/P48167:P300G): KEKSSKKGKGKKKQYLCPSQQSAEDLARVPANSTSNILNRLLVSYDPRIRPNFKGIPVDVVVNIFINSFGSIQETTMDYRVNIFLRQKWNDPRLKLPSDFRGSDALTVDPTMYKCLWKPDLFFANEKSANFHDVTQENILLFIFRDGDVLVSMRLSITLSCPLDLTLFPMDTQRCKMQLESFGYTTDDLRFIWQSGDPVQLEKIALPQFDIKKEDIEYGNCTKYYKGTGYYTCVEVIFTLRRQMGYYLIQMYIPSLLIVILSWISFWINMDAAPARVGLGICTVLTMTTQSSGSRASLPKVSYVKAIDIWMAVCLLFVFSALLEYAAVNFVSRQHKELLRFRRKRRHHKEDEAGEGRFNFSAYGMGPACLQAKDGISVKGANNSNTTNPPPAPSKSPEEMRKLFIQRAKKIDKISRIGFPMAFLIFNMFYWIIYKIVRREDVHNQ
Experimental: (§1) The human GlyR α1 and β subunit cDNAs were subcloned into the pcDNA3.1zeo+ (Invitrogen) or pGEMHE [44] plasmid vectors for expression in HEK293 cells or Xenopus oocytes, respectively. Site-directed mutagenesis and chimera construction were performed using the QuickChange (Stratagene, La Jolla, CA, USA) mutagenesis and multiple-template-based sequential PCR protocols, respectively.
(§2) For the β-α chimeras used for determining the effect of hyperekplexia-mimicking mutations on α1 β GlyR channel function, the Thr at the M2 6′ position was replaced by a Cys. […] Through such a modification, picrotoxin resistance was used to distinguish the heteromeric α1 β-α GlyR from the homomeric α1 GlyR when the α1 and β-α subunits were co-expressed.
(§3) The effects of the hyperekplexia-mimicking mutations, K24′A, V25′A and Y27′A, were examined on GlyRs expressed in HEK293 cells (ATCC). Details of the HEK293 cell culture, GlyR expression and electrophysiological recording of the HEK293 cells are described elsewhere. Briefly, HEK293 cells were maintained in DMEM supplemented with 10% fetal bovine serum. Cells were transfected using a calcium phosphate precipitation protocol. When co-transfecting the α1 together with the β or any other chimera subunits, their respective cDNAs were combined in a ratio of 1∶10. In addition, the pEGFP-N1 (Clontech) was co-transfected to facilitate identifying the transfected cells. […] Cells were treated with external Ringer's solution and internal CsCl solution [30]. Cells were voltage-clamped at −40 mV. When the heteromeric GlyRs were expressed, the picrotoxin sensitivity was tested to confirm that the majority of receptors are heteromers, [30].
(§4) Results are expressed as mean±standard error of the mean of three or more independent experiments. […] Statistical significance was determined using the Student's t-test.

αWT β-αY27′A GlyR = target: T2, αWT β-αY27′A GlyR (Homo sapiens, UniProt P23415+P48167, A275I/A296P/F268Y/G272Q/L286I/M270L/M271I/P292M/P300G/S295A/T277S/V266M/V273M/V282I/Y307A)
T2 construct: The α R218-Q219 and β R242-Q243 are also the joining sites for chimeras constructed between the ECD and TMD; expressed in transfected cells; host or cells: HEK293 cells (ATCC), pcDNA3.1zeo+
T2 sequence (P23415 29-449 isoform P23415-2): T1 sequence (P23415 29-449 isoform P23415-2)
T2 sequence (P48167+P23415 with tags, fused parts or gaps P48167:V266M/P48167:F268Y/P48167:M270L/P48167:M271I/P48167:G272Q/P48167:V273M/P48167:A275I/P48167:T277S/P48167:V282I/P48167:L286I/P48167:P292M/P48167:S295A/P48167:A296P/P48167:P300G/P23415:Y307A): T1 sequence (P48167+P23415 with tags, fused parts or gaps P48167:V266M/P48167:F268Y/P48167:M270L/P48167:M271I/P48167:G272Q/P48167:V273M/P48167:A275I/P48167:T277S/P48167:V282I/P48167:L286I/P48167:P292M/P48167:S295A/P48167:A296P/P48167:P300G) with Y303A
Experimental: as §1, §2, §3, §4

αWT β-αV25′A GlyR = target: T3, αWT β-αV25′A GlyR (Homo sapiens, UniProt P23415+P48167, A275I/A296P/F268Y/G272Q/L286I/M270L/M271I/P292M/P300G/S295A/T277S/V266M/V273M/V282I/V305A)
T3 construct: The α R218-Q219 and β R242-Q243 are also the joining sites for chimeras constructed between the ECD and TMD; expressed in transfected cells; host or cells: HEK293 (ATCC)
T3 sequence (P23415 29-449 isoform P23415-2): T1 sequence (P23415 29-449 isoform P23415-2)
T3 sequence (P48167+P23415 with tags, fused parts or gaps P48167:V266M/P48167:F268Y/P48167:M270L/P48167:M271I/P48167:G272Q/P48167:V273M/P48167:A275I/P48167:T277S/P48167:V282I/P48167:L286I/P48167:P292M/P48167:S295A/P48167:A296P/P48167:P300G/P23415:V305A): T1 sequence (P48167+P23415 with tags, fused parts or gaps P48167:V266M/P48167:F268Y/P48167:M270L/P48167:M271I/P48167:G272Q/P48167:V273M/P48167:A275I/P48167:T277S/P48167:V282I/P48167:L286I/P48167:P292M/P48167:S295A/P48167:A296P/P48167:P300G) with V301A
Experimental: as §1, §2, §3, §4

[1] = αWT β-αWT, HEK293, with glycine at EC50 of α1 homomer
[2] = αWT β-αY27′A, HEK293, with glycine at EC50 of α1 homomer
[3] = αWT β-αV25′A, HEK293, with glycine at EC50 of α1 homomer

Compound	10uM PTX inhibition (%) (αWT β-αWT GlyR; [1])	100uM PTX inhibition (%) (αWT β-αWT GlyR; [1])	10uM PTX inhibition (%) (αWT β-αY27′A GlyR; [2])	100uM PTX inhibition (%) (αWT β-αY27′A GlyR; [2])	10uM PTX inhibition (%) (αWT β-αV25′A GlyR; [3])	100uM PTX inhibition (%) (αWT β-αV25′A GlyR; [3])	Imax (αWT β-αWT GlyR) [nA]	nH (αWT β-αWT GlyR)	Imax (αWT β-αY27′A GlyR) [nA]	nH (αWT β-αY27′A GlyR)	Imax (αWT β-αV25′A GlyR) [nA]	nH (αWT β-αV25′A GlyR)
picrotoxin [PTX]	8.5±1.9	26±2	22±7	48±4	8.8±1.6	31±1						
NCC(=O)O [glycine]							8.0±2.3	2.4±0.4	6.5±1.6	2.1±0.6	11.0±1.1	2.2±0.3
